{
  "source": "patent US7994360B2",
  "about": "“Benzofuran compounds” (XTL Biopharmaceuticals Ltd., priority 2005, dated 2011)",
  "key": {"[1]": {"system": "HCV Replicon (HCV RNA) in Huh-Luc-Neo cells", "experiment": "HCV Replicon RNA Assay (Taqman quantitative PCR of HCV RNA)", "format": "cell-based", "conditions": "Hepatitis C virus, compound added day 0 and day 1, HCV RNA by quantitative PCR, no unit printed in table (text gives hit threshold in μM)", "description": "Day 2, RNA Isolation and cDNA Synthesis: The cells are washed with 1× Phosphate Buffered Saline (PBS) once."}, "[2]": {"system": "Huh-Luc-Neo cells", "experiment": "CellTiter-Glo Cell Viability Assay", "format": "cell-based, human", "conditions": "inhibition of cell viability; for Toxicity % Inhibition at 50uM (2 doses): conditions identical to Replicon RNA assay; for Toxicity % Inhibition at 100 uM (1 dose): conditions identical to Luciferase assay (48 h)"}, "[3]": {"system": "HCV Replicon (HCV IRES driven luciferase reporter) in Huh-Luc-Neo cells", "experiment": "HCV Replicon Luciferase Assay", "conditions": "Hepatitis C virus, 48 h, read-out: Luciferase IC50"}},
  "data": [
    {"smiles": "CC(=O)c1ccc(-c2c(-c3ccccc3Cl)oc3c(C#Cc4ccccc4Cl)cc(CO)cc23)cc1", "note": "[VQ–36165]", "values": [
      {"measurement": "IC50", "setting": "[1]", "value": 1.31, "unit": "µM"},
      {"measurement": "Toxicity % Inhibition at 50uM (2 doses)", "setting": "[2]", "value": 5.7, "unit": "%"},
      {"measurement": "Toxicity % Inhibition at 100 uM (1 dose)", "setting": "[2]", "value": 10.5, "unit": "%"},
      {"measurement": "IC50", "setting": "[3]", "value": 5.12, "unit": "µM"}
    ]},
    {"smiles": "CC(=O)c1ccc(-c2c(-c3ccccc3C(F)(F)F)oc3c(C#Cc4ccccc4Cl)cc(CO)cc23)cc1", "note": "[VQ–36167]", "values": [
      {"measurement": "IC50", "setting": "[1]", "value": 1.61, "unit": "µM"},
      {"measurement": "Toxicity % Inhibition at 50uM (2 doses)", "setting": "[2]", "value": 20.2, "unit": "%"},
      {"measurement": "Toxicity % Inhibition at 100 uM (1 dose)", "setting": "[2]", "value": 33.2, "unit": "%"},
      {"measurement": "IC50", "setting": "[3]", "value": 12.2, "unit": "µM"}
    ]}
  ]
}
